Test results as given in ChEMBL document CHEMBL4616725, “Global PROTAC Toolbox for Degrading BCR-ABL Overcomes Drug-Resistant Mutants and Adverse Effects” (J Med Chem, 2020).
Calls of active or inactive are those of the source. The rule behind the calls is not given here.

Assays:
[1] = biological target: Protein cereblon/Tyrosine-protein kinase ABL1/Breakpoint cluster region protein (Homo sapiens, UniProt P00519+P11274+Q96SW2, T315I); format: cell-based, BaF3
[2] = biological target: Protein cereblon/Tyrosine-protein kinase ABL1/Breakpoint cluster region protein (Homo sapiens, UniProt P00519+P11274+Q96SW2); experiment: Protac activity at Cereblon/BCR/ABL in human K562 cells assessed as induction of BCR-ABL degradation incubated for 32 to 48 hrs by Western blot analysis; format: cell-based
BaF3 = experiment: Antiproliferative activity against wild type mouse BA/F3 cells incubated for 3 days by CCK8 assay; format: cell-based; conditions: BaF3, 72 h
K562 = experiment: Antiproliferative activity against human K562 cells incubated for 3 days by CCK8 assay; format: functional, cell-based; conditions: K562, 72 h
[3] = tested on: Protein cereblon/Tyrosine-protein kinase ABL1/Breakpoint cluster region protein (Homo sapiens), P00519+P11274+Q96SW2 [T315I]; experiment: Protac activity at Cereblon/BCR/ABL T315I mutant (unknown origin) expressed in mouse BaF3 cells assessed as reduction in BCR-ABL T315I mutant protein levels at 3 to 30000 nM incubated for 48 hrs by Western blot analysis; format: cell-based
[4] = tested on: Protein cereblon/Tyrosine-protein kinase ABL1/Breakpoint cluster region protein (Homo sapiens), P00519+P11274+Q96SW2 [T315I]; experiment: Protac activity at Cereblon/BCR/ABL T315I mutant (unknown origin) expressed in mouse BaF3 cells assessed as reduction in BCR-ABL T315I mutant protein levels at 3 to 30000 nM incubated for 32 hrs by Western blot analysis; format: cell-based
HUVEC [5] = experiment: Antiproliferative activity against human HUVEC incubated for 3 days by CCK8 assay; format: cell-based; conditions: 72 h
HUVEC [6] = experiment: Toxicity in HUVEC assessed as inhibition of tube formation at 200 nM incubated for 20 hrs by optical microscopy based matrigel-based assay; format: cell-based; conditions: human, 0.2 µM
H9c2 = experiment: Antiproliferative activity against rat H9C2 cells incubated for 3 days by CCK8 assay; format: cell-based; conditions: H9c2, 72 h
[7] = tested on: Protein cereblon/Tyrosine-protein kinase ABL1/Breakpoint cluster region protein (Homo sapiens), P00519+P11274+Q96SW2 [T315I]; experiment: Protac activity at Cereblon/BCR/ABL T315I mutant (unknown origin) expressed in mouse BaF3 cells assessed as reduction in BCR-ABL T315I mutant protein levels at 1 uM incubated for 48 hrs by Western blot analysis; format: cell-based

| SMILES | DC50 [2] [nM] | EC50 [1] [nM] | further results |
| --- | --- | --- | --- |
| C#CCCCC(=O)N1CCN(c2cc(Nc3ncc(/C=C/c4cc(F)cc(F)c4)s3)nc(C)n2)CC1 |  | 1500 |  |
| Cc1nc(Nc2ncc(C(=O)Nc3c(C)cccc3Cl)s2)cc(N2CCN(C(=O)CCCc3cn(CCOCCOCCOCCNc4cccc5c4C(=O)N(C4CCC(=O)NC4=O)C5=O)nn3)CC2)n1 (stereo not given) | 56 |  |  |
| Cc1ccc(NC(=O)c2ccc(CN3CCN(C(=O)CCCc4cn(CCOCCOCCNc5cccc6c5C(=O)N(C5CCC(=O)NC5=O)C6=O)nn4)CC3)cc2)cc1Nc1nccc(-c2cccnc2)n1 (stereo not given) | > 10000 |  |  |
| Cc1nc(Nc2ncc(C(=O)Nc3c(C)cccc3Cl)s2)cc(N2CCN(CCCCCCOCCOCCOCCCCCC(=O)Nc3cccc4c3C(=O)N(C3CCC(=O)NC3=O)C4=O)CC2)n1 (stereo not given) |  |  | EC50 (BaF3): > 10000 nM; IC50 (K562): 8 nM; Activity [3]: inactive |
| O=C1CCC(N2C(=O)c3cccc(NCCOCCOCCn4cc(CCCC(=O)N[C@@H]5CCN(c6ncc(C(=O)Nc7ccc(OC(F)(F)Cl)cc7)cc6-c6cc[nH]n6)C5)nn4)c3C2=O)C(=O)N1 (stereo not given in full) | 300 |  |  |
| C#CCCCC(=O)N1CCN(c2cc(Nc3ncc(C)s3)nc(C)n2)CC1 |  | > 10000 |  |
| Cc1nc(Nc2ncc(C(=O)Nc3c(C)cccc3Cl)s2)cc(N2CCN(CCO)CC2)n1 [DASATINIB] |  |  | EC50 (BaF3): > 10000 nM; IC50 (K562): 0.19 nM |
| O=C1CCC(N2C(=O)c3cccc(NCCOCCOCCOCCn4cc(CCCC(=O)N[C@@H]5CCN(c6ncc(C(=O)Nc7ccc(OC(F)(F)Cl)cc7)cc6-c6cc[nH]n6)C5)nn4)c3C2=O)C(=O)N1 (stereo not given in full) | 200 | 1020 | EC50 (BaF3): > 10000 nM; Activity [4]: Active; IC50 (K562): 121 nM |
| C#CCCCC(=O)N1CCN(c2cc(Nc3ncc(/C=C/c4ccc(F)cc4)s3)nc(C)n2)CC1 |  | 3200 |  |
| Cc1ccc(NC(=O)c2ccc(CN3CCN(C)CC3)cc2)cc1Nc1nccc(-c2cccnc2)n1 [IMATINIB] |  |  | IC50 (K562): 76.2 nM |
| C#CCCCC(=O)N1CCN(c2cc(Nc3ncc(/C=C/c4ccc(F)c(F)c4)s3)nc(C)n2)CC1 |  | 570 |  |
| C#CCCCC(=O)N1CCN(c2cc(Nc3ncc(/C=C/c4cccc(OC)c4)s3)nc(C)n2)CC1 |  | > 10000 |  |
| C#CCCCC(=O)N1CCN(c2cc(Nc3ncc(/C=C/c4cccc(C)c4)s3)nc(C)n2)CC1 |  | 450 |  |
| Cc1ccc(C(=O)Nc2ccc(CN3CCN(C(=O)CCCc4cn(CCOCCOCCOCCOCCNc5cccc6c5C(=O)N(C5CCC(=O)NC5=O)C6=O)nn4)CC3)c(C(F)(F)F)c2)cc1C#Cc1cnc2cccnn12 (stereo not given) | 70 |  |  |
| C#CCCCC(=O)N1CCN(c2cc(Nc3ncc(/C=C/c4cccc(O)c4)s3)nc(C)n2)CC1 |  | 1300 |  |
| Cc1ccc(C(=O)Nc2ccc(CN3CCN(C)CC3)c(C(F)(F)F)c2)cc1C#Cc1cnc2cccnn12 [PONATINIB] |  |  | EC50 (HUVEC [5]): 515 nM; EC50 (BaF3): 438 nM; IC50 (K562): 0.3 nM; Activity (HUVEC [6]): Toxic; EC50 (H9c2): 379 nM |
| Cc1cccc(/C=C/c2cnc(Nc3cc(N4CCN(C(=O)CCCc5cn(CCOCCOCCOCCOCCNc6cccc7c6C(=O)N(C6CCC(=O)NC6=O)C7=O)nn5)CC4)nc(C)n3)s2)c1 (stereo not given) |  | 6100 | EC50 (BaF3): > 10000 nM; Activity [7]: Active; Activity [3]: Active |
| Cc1nc(Nc2ncc(C(=O)Nc3c(C)cccc3Cl)s2)cc(N2CCN(C(=O)CCCc3cn(CCOCCOCCOCCOCCNc4cccc5c4C(=O)N(C4CCC(=O)NC4=O)C5=O)nn3)CC2)n1 (stereo not given) | 10 | > 10000 | EC50 (BaF3): > 10000 nM; IC50 (K562): 9.2 nM; Activity [3]: inactive |
| Cc1ccc(NC(=O)c2ccc(CN3CCN(C(=O)CCCc4cn(CCNc5cccc6c5C(=O)N(C5CCC(=O)NC5=O)C6=O)nn4)CC3)cc2)cc1Nc1nccc(-c2cccnc2)n1 (stereo not given) | > 10000 |  |  |
| C#CCCCC(=O)N1CCN(c2cc(Nc3ncc(/C=C/c4cccc(F)c4)s3)nc(C)n2)CC1 |  | 770 |  |
| Cc1ccc(C(=O)Nc2ccc(CN3CCN(C(=O)CCCc4cn(CCNc5cccc6c5C(=O)N(C5CCC(=O)NC5=O)C6=O)nn4)CC3)c(C(F)(F)F)c2)cc1C#Cc1cnc2cccnn12 (stereo not given) | 625 |  |  |
| Cc1nc(Nc2ncc(C(=O)Nc3c(C)cccc3Cl)s2)cc(N2CCN(C(=O)CCCc3cn(CCNc4cccc5c4C(=O)N(C4CCC(=O)NC4=O)C5=O)nn3)CC2)n1 (stereo not given) | 56 |  |  |

Second part, led by results:

| DC50 [2] [nM] | SMILES | EC50 [1] [nM] | further results |
| --- | --- | --- | --- |
| 20 | Cc1nc(Nc2ncc(C(=O)Nc3c(C)cccc3Cl)s2)cc(N2CCN(C(=O)CCCc3cn(CCOCCOCCNc4cccc5c4C(=O)N(C4CCC(=O)NC4=O)C5=O)nn3)CC2)n1 (stereo not given) |  |  |
| > 10000 | Cc1ccc(NC(=O)c2ccc(CN3CCN(C(=O)CCCc4cn(CCOCCOCCOCCOCCNc5cccc6c5C(=O)N(C5CCC(=O)NC5=O)C6=O)nn4)CC3)cc2)cc1Nc1nccc(-c2cccnc2)n1 (stereo not given) |  |  |
| > 10000 | Cc1ccc(NC(=O)c2ccc(CN3CCN(C(=O)CCCc4cn(CCOCCOCCOCCNc5cccc6c5C(=O)N(C5CCC(=O)NC5=O)C6=O)nn4)CC3)cc2)cc1Nc1nccc(-c2cccnc2)n1 (stereo not given) |  |  |
| > 10000 | Cc1ccc(NC(=O)c2ccc(CN3CCN(C(=O)CCCc4cn(CCOCCNc5cccc6c5C(=O)N(C5CCC(=O)NC5=O)C6=O)nn4)CC3)cc2)cc1Nc1nccc(-c2cccnc2)n1 (stereo not given) |  |  |
| 70 | Cc1ccc(C(=O)Nc2ccc(CN3CCN(C(=O)CCCc4cn(CCOCCOCCNc5cccc6c5C(=O)N(C5CCC(=O)NC5=O)C6=O)nn4)CC3)c(C(F)(F)F)c2)cc1C#Cc1cnc2cccnn12 (stereo not given) |  |  |
| 70 | Cc1ccc(C(=O)Nc2ccc(CN3CCN(C(=O)CCCc4cn(CCOCCNc5cccc6c5C(=O)N(C5CCC(=O)NC5=O)C6=O)nn4)CC3)c(C(F)(F)F)c2)cc1C#Cc1cnc2cccnn12 (stereo not given) |  |  |
| 500 | O=C1CCC(N2C(=O)c3cccc(NCCOCCOCCOCCOCCn4cc(CCCC(=O)N[C@@H]5CCN(c6ncc(C(=O)Nc7ccc(OC(F)(F)Cl)cc7)cc6-c6cc[nH]n6)C5)nn4)c3C2=O)C(=O)N1 (stereo not given in full) |  |  |
| > 625 | O=C1CCC(N2C(=O)c3cccc(NCCn4cc(CCCC(=O)N[C@@H]5CCN(c6ncc(C(=O)Nc7ccc(OC(F)(F)Cl)cc7)cc6-c6cc[nH]n6)C5)nn4)c3C2=O)C(=O)N1 (stereo not given in full) |  |  |
| 56 | Cc1nc(Nc2ncc(C(=O)Nc3c(C)cccc3Cl)s2)cc(N2CCN(C(=O)CCCc3cn(CCOCCNc4cccc5c4C(=O)N(C4CCC(=O)NC4=O)C5=O)nn3)CC2)n1 (stereo not given) |  |  |
| 400 | O=C1CCC(N2C(=O)c3cccc(NCCOCCn4cc(CCCC(=O)N[C@@H]5CCN(c6ncc(C(=O)Nc7ccc(OC(F)(F)Cl)cc7)cc6-c6cc[nH]n6)C5)nn4)c3C2=O)C(=O)N1 (stereo not given in full) |  |  |
